Laboratory results: patent US11191744B2, “Pharmaceutical active ingredient and use thereof, in particular for the prevention and treatment of metabolic disorders in humans and animals” (VALBIOTIS, priority 2017, dated 2021)
Several values for one entry are separate records, joined by “and”; a condition that tells them apart may be missing. Identical values can stand only once.

Assays:
Format in all cases: in vivo
[1] = system: db/db mice; test: Fasting glycemia in db/db mice after 6 weeks of treatment; conditions: for effect on fasting glycemia (in words): db/db mice, after 6 weeks of treatment, versus CONTROL; for Fasting glycemia after 6 weeks of treatment: male db/db mice, fasted 6 h, compositions in the diet, mean values ± SEM
Description: (§1) The composition was also compared to metformin, one of the main pharmaceutical molecules prescribed for the treatment of type 2 diabetes.
(§2) Experiments were performed on db/db mice, a model mimicking the characteristics of type 2 diabetes in humans (Roesler W J et al., Mol Cell Biochem 1990; 92(2):99-106). These mice are insulin-resistant, hypertriglyceridemic, and glucose intolerant. They very quickly develop pre-diabetes, a type 2 diabetes and then NASH.
(§3) The experimental time for the trial was […] with a 1 week run-in followed by 6 weeks of treatment. The male mice were 6 weeks old at the start of treatment. The (1S,3R,4R,5R)-3-{[(2E)-3-(3,4-dihydroxyphenyl)-2-propenoyl]oxy}-1,4,5-trihydroxycyclohexanecarboxylic acid alone, the methyl (2S,3E,4S)-4-{2-[2-(3,4-dihydroxyphenyl)ethoxy]-2-oxoethyl}-3-ethylidene-2-(β-D-glucopyranosyloxy)-3,4-dihydro-2H-pyran-5-carboxylate alone, and the mixture of these two molecules in a ratio of 1/4.65 have been tested and compared with metformin. These compositions were directly integrated into the diet of rodents, thus ensuring large-scale use, with injections, for example, intravenous, being limited to a small number given their mode of administration.
(§4) After randomization by weight and fasting glycemia, the animals were divided into the following groups: • Control (n=15): CONTROL; • Metformin (n=12, 0.2% of the diet): MET; • (1S,3R,4R,5R)-3-{[(2E)-3-(3,4-dihydroxyphenyl)-2-propenoyl]oxy}-1,4,5-trihydroxycyclohexanecarboxylic acid (n=12, 0.026% of the diet): V63X35; • The methyl (2S,3E,4S)-4-{2-[2-(3,4-dihydroxyphenyl)ethoxy]-2-oxoethyl}-3-ethylidene-2-(β-D-glucopyranosyloxy)-3,4-dihydro-2H-pyran-5-carboxylate (n=11, 0.12% of diet): V63X54; • The (1S,3R,4R,5R)-3-{[(2E)-3-(3,4-dihydroxyphenyl)-2-propenoyl]oxy}-1,4,5-trihydroxycyclohexanecarboxylic acid+methyl (2S,3E,4S)-4-{2-[2-(3,4-dihydroxyphenyl)ethoxy]-2-oxoethyl}-3-ethylidene-2-(β-D-glucopyranosyloxy)-3,4-dihydro-2H-pyran-5-carboxylate (n=11, respectively 0.026% and 0.12% of the feed): V63,000.
(§5) Experimental evaluations performed on an empty stomach (6 h) after 6 weeks of treatment were in particular concerned with: • The measurement of weight; • Measuring glycemia; • Measuring of insulinemia; • Measuring of serum triglycerides.
The synergistic effect on fasting glycemia was evaluated according to the Colby SR method described in “Calculation of the synergistic and antagonistic responses of herbicide combinations” Weeds, 1967, 15:20-22. A factor>1 indicates the existence of a synergistic effect. A factor<1 indicates the existence of an antagonist.
V63X54 represents the percent change in glycemia for the V63X54 group compared to the CONTROL group.

[2] = system: db/db mice; test: Fasting insulinemia in db/db mice after 6 weeks of treatment; conditions: for Median values of insulinemia after 6 weeks of treatment: male db/db mice, fasted 6 h, compositions in the diet; for median insulinemia compared with CONTROL (in words): db/db mice, after 6 weeks of treatment
Description: as §1, §2
FIG. 1 illustrates the evolution of insulinemia and glycemia (glucose) over time in this model (Joost H G et al., Animal Models in Diabetes Research, Humana Press). As for humans, the rise in glycemia is initially accompanied by an increase in insulinemia (associated with insulin resistance), evidence of a pancreas still able to secrete insulin, then a decrease, reflecting functional degeneration of the pancreas, and thus progression of type 2 diabetes with the need for insulin therapy (Kobayashi K et al., Metabolism: Clinical and experimental 2,000; 49:22-31 Tao H et al Nat Med 2014; 20(11):1263-1269).
as §3, §4, §5

[3] = system: db/db mice; test: Fasting serum triglycerides in db/db mice after 6 weeks of treatment
Description: as §1, §2
as §3, with “administration. […]” for “administration.”

| SMILES | effect on fasting glycemia (in words) [1] | Fasting glycemia after 6 weeks of treatment [1] | Median values of insulinemia after 6 weeks of treatment [2] [ng/mL] | reduction of blood triglyceride levels ([3]; db/db mice, after 6 weeks of treatment, versus CONTROL) [%] | Serum triglycerides after 6 weeks of treatment ([3]; male db/db mice, fasted 6 h, compositions in the diet, mean values ± SEM) [mg/dL] | median insulinemia compared with CONTROL (in words) [2] |
| --- | --- | --- | --- | --- | --- | --- |
| CN(C)C(=N)N=C(N)N [MET, metformin, reference compound] | no effect | 454 mg/dL and 454 ± 34 mg/dL | 21.89 | 35.6 | 132.6 ± 7.4 |  |
| C/C=C1/[C@H](O[C@@H]2O[C@H](CO)[C@@H](O)[C@H](O)[C@H]2O)OC=C(C(=O)OC)[C@H]1CC(=O)OCCc1ccc(O)c(O)c1 [V63X54, methyl (2S,3E,4S)-4-{2-[2-(3,4-dihydroxyphenyl)ethoxy]-2-oxoethyl}-3-ethylidene-2-(β-D-glucopyranosyloxy)-3,4-dihydro-2H-pyran-5-carboxylate] | no effect | 432 ± 27 mg/dL | 25.44 |  |  | no difference |
| O=C(/C=C/c1ccc(O)c(O)c1)O[C@@H]1C[C@](O)(C(=O)O)C[C@@H](O)[C@H]1O [V63X35, (1S,3R,4R,5R)-3-{[(2E)-3-(3,4-dihydroxyphenyl)-2-propenoyl]oxy}-1,4,5-trihydroxycyclohexanecarboxylic acid] | no effect | 454 ± 34 mg/dL | 22.39 |  |  | no difference |
